Results reported in patent US20160015033A1, “COMPOUNDS DERIVED FROM HERBICIDAL CARBOXYLIC ACIDS AND TETRAALKYLAMMONIUM OR (ARYLALKYL)TRIALKYLAMMONIUM HYDROXIDES” (DOW AGROSCIENCES LLC, priority 2014, published 2016).

Tests used:
[1] = tested on: Broadleaf Dock Rumex obtusifolia; assay: Post-emergence greenhouse herbicide evaluation, Broadleaf Dock; assay type: in vivo; conditions: 560 g ae/ha, 14 days after application, visual injury 0 to 100% vs untreated control
Description: (§1) A peat based potting soil, Metro-mix 360, was used as the soil media for this test. Metro-mix is a growing medium consisting of 35 to 45% specially processed Coconut Coir Pith, 10 to 20% horticultural grade vermiculite, 15 to 25% processed Ash Bark, 20 to 30% choice Canadian Sphagnum Peat Moss and proprietary nutrients and other ingredients. Several seeds of each species were to planted in 10 cm square pots and top watered twice daily. Plant material was propagated in the greenhouse at a constant temperature of 26 to 28° C. and 50 to 60% relative humidity. Natural light was supplemented with 1000-watt metal halide overhead lamps with an average illumination of 500 μE m^−2 s^−1 photosynthetic active radiation (PAR). Day length was 16 hours. Plant material was top-watered prior to treatment and sub-irrigated after treatment. […] The growth stage of the various weed species ranged from 2 to 4 leaf. Treatments were replicated 3 times. Plants were returned to the greenhouse after treatment and sub-watered throughout the duration of the to experiment. Plant material was fertilized twice weekly with Hoagland's fertilizer solution. Percent visual injury assessments were made on a scale of 0 to 100% as compared to the untreated control plants (where 0 is equal to no injury and 100 is equal to complete death of the plant).

Kochia Kochia scoparia = assay: Post-emergence greenhouse herbicide evaluation, Kochia; assay type: in vivo; conditions: 560 g ae/ha, 14 days after application, visual injury 0 to 100% vs untreated control
Description: as §1

[2] = tested on: grapes (Vitis labrusca L.); assay: Volatility evaluation: injury to grapes from vapor exposure; conditions: wheat sprayed at 11200 g ae/ha, 24 hour vapor exposure at 40° C., evaluated 7 days after exposure
Description: Four pots of wheat (Triticum aestivum L.) grown in 4 inch square pots were sprayed at 11200 g ae/ha with each of the different forms of 2,4-D. Treatments were applied with a tracksprayer manufactured by Allen Machine Works. The sprayer utilized an 8002E spray nozzle, spray pressure of 262 kPa pressure and speed of 1.5 mph (2.4 km/h) to deliver 187 L/Ha. The nozzle height was 46 cm above the plant canopy. The growth stage of the wheat was 1 to 2 leaf. The wheat plants were allowed to thoroughly dry to ensure that none of the spray solution was present when they were moved into a clean pot flat. A known sensitive species, grapes (Vitis labrusca L.) were placed at the opposite end of the flat. All of the pots were covered with a humidome with small ½ inch (1.27 cm) diameter holes cut into the end where the wheat was placed and a small box fan powered with a battery in the other end to pull air across the treated wheat plants and over the top of grapes. Plants were placed into a growth chamber with the temperature set at 40° C. with a 14 hour day and a 10 hour night cycle. A 24 hour exposure period was used after which the sensitive plants were then removed and placed in the greenhouse and evaluated for injury from vapor exposure to the treatments.

Row | Molecule | % Control Broadleaf Dock Rumex obtusifolia [1] | % Control Kochia Kochia scoparia (Kochia Kochia scoparia) | % Injury to grapes from vapor exposure [2]
1 | CNC.O=C(O)COc1ccc(Cl)cc1Cl [2,4-D dimethylamine (DMA), 2,4-D dimethylamine, reference compound] | 77% | 86% | 78%
2 | CCCCOCCOC(=O)COc1ccc(Cl)cc1Cl [2,-4-D butoxyethylester (BEE), 2,-4-D butoxyethylester] | – | – | 100%
3 | C[N+](C)(C)C.O=C([O-])COc1ccc(Cl)cc1Cl [Compound 1a] | 77% | 83% | –
4 | CC[N+](CC)(CC)CC.O=C([O-])COc1ccc(Cl)cc1Cl [Compound 1b] | 79% | 89% | 0%
5 | CCC[N+](CCC)(CCC)CCC.O=C([O-])COc1ccc(Cl)cc1Cl [Compound 1c] | 73% | 83% | –
6 | C[N+](C)(C)CCO.O=C([O-])COc1ccc(Cl)cc1Cl [Compound 1e] | 68% | 86% | –
7 | C[N+](C)(C)C.O=C([O-])COc1nc(Cl)c(Cl)cc1Cl [Compound 2a] | 85% | 79% | –
8 | CC[N+](CC)(CC)CC.O=C([O-])COc1nc(Cl)c(Cl)cc1Cl [Compound 2b] | 79% | 88% | 6%
9 | CCC[N+](CCC)(CCC)CCC.O=C([O-])COc1nc(Cl)c(Cl)cc1Cl [Compound 2c] | 79% | 95% | –
10 | COc1c(Cl)ccc(Cl)c1C(=O)[O-].C[N+](C)(C)C [Compound 4a] | – | – | 12%
11 | CCN(CC)CC.O=C(O)COc1nc(Cl)c(Cl)cc1Cl [Triclopyr triethylamine (TEA), Triclopyr triethylamine, reference compound] | 81% | 91% | 57%
12 | Dicamba DMA | – | – | 70%
